# Laboratory results as given in patent US20240409585A1, “MACROCYCLIC IMMUNOMODULATORS” (priority 2021, published 2024).
# Numbered stars: 1 amine (or outer) side, 2 acyl side, 3 side chain; on linkers, the order of the positions; unused ones are H or OH. Bridge positions count the residues as written; N and C are the ends. Square brackets hold non-standard residues; d marks the D form. Peptide text beside a SMILES is read from it. * marks the point of attachment. ξ: configuration not given here. Phe(3-CONH2) = NC(=O)c1cccc(C[C@H](N)C(=O)O)c1; Phe(4-CONH2) = NC(=O)c1ccc(C[C@H](N)C(=O)O)cc1; Phe(4-COOH) = N[C@@H](Cc1ccc(C(=O)O)cc1)C(=O)O; Bip = N[C@@H](Cc1ccc(-c2ccccc2)cc1)C(=O)O; Ala(2-furyl) = N[C@@H](Cc1ccco1)C(=O)O; Phe(3-Me) = Cc1cccc(C[C@H](N)C(=O)O)c1; Val(3-OH) = CC(C)(O)[C@H](N)C(=O)O; X49 = O=C(C(N[*:1])C1CCOCC1)[*:2]; 4Pal = N[C@@H](Cc1ccncc1)C(=O)O; 2Thi = N[C@@H](Cc1cccs1)C(=O)O; Cha = N[C@@H](CC1CCCCC1)C(=O)O; Cit = NC(=O)NCCC[C@H](N)C(=O)O; Ile(3ξ) = CCC(C)[C@H](N)C(=O)O; Thr(3ξ) = CC(O)[C@H](N)C(=O)O; Carboxymethyl = O=C(O)C*; NMeA = CN[C@@H](C)C(=O)O; Dab = NCC[C@H](N)C(=O)O; Dap = NC[C@H](N)C(=O)O
# Molecular target: T1, PE-labeled human PD-L1-Ig binding to Jurkat cell line over-expressing human PD-1 (Jurkat-PD-1) (Homo sapiens, UniProt Q15116)
# T1 construct: expressed in transfected cells; host or cells: Jurkat
# Test: Jurkat-PD-1 Cell Binding High-Content Screening Assay (CBA): Method 1
# Details: Jurkat-hPD-1 cells, PE-labeled PD-L1-Ig 20 nM final; read-out: Jurkat HPDL1 PD1 IC50 (uM) (Method 1)
# T1 sequence (Q15116 25-288): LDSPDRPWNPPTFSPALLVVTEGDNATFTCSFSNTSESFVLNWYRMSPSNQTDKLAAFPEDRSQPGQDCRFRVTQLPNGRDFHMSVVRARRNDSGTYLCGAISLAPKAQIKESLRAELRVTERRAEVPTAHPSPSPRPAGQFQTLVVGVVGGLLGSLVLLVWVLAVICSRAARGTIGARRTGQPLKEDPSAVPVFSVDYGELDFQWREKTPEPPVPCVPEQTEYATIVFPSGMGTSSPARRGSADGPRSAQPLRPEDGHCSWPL
row,Compound,IC50 [µM]
1,Cc1cccc(C[C@@H]2NC(=O)[C@H](CC(=O)O)NC(=O)[C@H](Cc3ccc(OCC(=O)O)cc3)NC(=O)[C@H](Cc3cccs3)NC(=O)CSC[C@@H](C(=O)N[C@@H](CN)C(N)=O)NC(=O)[C@H](C(C)O)NC(=O)[C@H](C(C)(C)O)NC(=O)[C@H](CC3CCCCC3)NC(=O)[C@H](CCN)NC(=O)[C@@H](CC(C)C)NC(=O)[C@H](C)N(C)C(=O)[C@H](CCCNC(N)=O)NC(=O)[C@H](Cc3ccc(-c4ccccc4)cc3)NC(=O)[C@H](Cc3ccc(OCC(=O)O)cc3)NC2=O)c1 (stereo partly drawn) [Compound 2169] ({CH2CO}-[2Thi]Y(Carboxymethyl)D[Phe(3-Me)]Y(Carboxymethyl)[Bip][Cit][NMeA][dL][Dab][Cha][Val(3-OH)][Thr(3ξ)]C[Dap]-NH2; thioether N-14),0.01
2,CCC(C)[C@@H]1NC(=O)[C@H](Cc2ccc(-c3ccccc3)cc2)NC(=O)[C@H](C(C)C)NC(=O)[C@H](Cc2c[nH]c3ccccc23)NC(=O)[C@H](CC(=O)O)NC(=O)[C@H](Cc2ccc(O)cc2)NC(=O)[C@H](Cc2cccs2)NC(=O)CSC[C@@H](C(=O)N[C@@H](CCCNC(=N)N)C(N)=O)NC(=O)[C@H](C(C)O)NC(=O)[C@H](C(C)(C)O)NC(=O)[C@H](CC2CCCCC2)NC(=O)[C@H](CC(N)=O)NC(=O)[C@@H](CC(C)C)NC(=O)[C@H](C)N(C)C1=O (stereo partly drawn) [Compound 2172] ({CH2CO}-[2Thi]YDWV[Bip][Ile(3ξ)][NMeA][dL]N[Cha][Val(3-OH)][Thr(3ξ)]CR-NH2; thioether N-14),0.08
3,CCC(C)[C@@H]1NC(=O)[C@H](Cc2ccc(-c3ccccc3)cc2)NC(=O)[C@H](C(C)C)NC(=O)[C@H](Cc2c[nH]c3ccccc23)NC(=O)[C@H](CC(=O)O)NC(=O)[C@H](Cc2ccc(O)cc2)NC(=O)[C@H](CCN)NC(=O)CSC[C@@H](C(=O)N[C@H](C(N)=O)C(C)C)NC(=O)[C@H](C(C)O)NC(=O)[C@H](C(C)(C)O)NC(=O)[C@H](CC2CCCCC2)NC(=O)[C@H](CC(N)=O)NC(=O)[C@@H](CC(C)C)NC(=O)[C@H](C)N(C)C1=O (stereo partly drawn) [Compound 2173] ({CH2CO}-[Dab]YDWV[Bip][Ile(3ξ)][NMeA][dL]N[Cha][Val(3-OH)][Thr(3ξ)]CV-NH2; thioether N-14),0.19
4,CCC(C)[C@@H]1NC(=O)[C@H](Cc2ccc(-c3ccccc3)cc2)NC(=O)[C@H](C(C)C)NC(=O)[C@H](Cc2c[nH]c3ccccc23)NC(=O)[C@H](CC(=O)O)NC(=O)[C@H](Cc2ccc(O)cc2)NC(=O)[C@H](Cc2cccs2)NC(=O)CSC[C@@H](C(=O)N2CCC[C@H]2C(N)=O)NC(=O)[C@H](C(C)O)NC(=O)[C@H](C(C)(C)O)NC(=O)[C@H](CC2CCCCC2)NC(=O)[C@H](CC(N)=O)NC(=O)[C@@H](CC(C)C)NC(=O)[C@H](C)N(C)C1=O (stereo partly drawn) [Compound 2174] ({CH2CO}-[2Thi]YDWV[Bip][Ile(3ξ)][NMeA][dL]N[Cha][Val(3-OH)][Thr(3ξ)]CP-NH2; thioether N-14),0.31
5,CCC(C)[C@@H]1NC(=O)[C@H](Cc2ccc(-c3ccccc3)cc2)NC(=O)[C@H](C(C)C)NC(=O)[C@H](Cc2c[nH]c3ccccc23)NC(=O)[C@H](CC(=O)O)NC(=O)[C@H](Cc2ccc(O)cc2)NC(=O)[C@H](CCN)NC(=O)CSC[C@@H](C(=O)NC(C(N)=O)C2CCOCC2)NC(=O)[C@H](C(C)O)NC(=O)[C@H](C(C)(C)O)NC(=O)[C@H](CC2CCCCC2)NC(=O)[C@H](CC(N)=O)NC(=O)[C@@H](CC(C)C)NC(=O)[C@H](C)N(C)C1=O (stereo partly drawn) [Compound 2175] ({CH2CO}-[Dab]YDWV[Bip][Ile(3ξ)][NMeA][dL]N[Cha][Val(3-OH)][Thr(3ξ)]C[X49]-NH2; thioether N-14),0.23
6,CCC(C)[C@@H]1NC(=O)[C@H](Cc2ccc(-c3ccccc3)cc2)NC(=O)[C@H](C(C)C)NC(=O)[C@H](Cc2c[nH]c3ccccc23)NC(=O)[C@H](CC(=O)O)NC(=O)[C@H](Cc2ccc(O)cc2)NC(=O)[C@H](Cc2ccco2)NC(=O)CSC[C@@H](C(=O)NC(C(N)=O)C2CCOCC2)NC(=O)[C@H](C(C)O)NC(=O)[C@H](C(C)(C)O)NC(=O)[C@H](CC2CCCCC2)NC(=O)[C@H](CC(N)=O)NC(=O)[C@@H](CC(C)C)NC(=O)[C@H](C)N(C)C1=O (stereo partly drawn) [Compound 2176] ({CH2CO}-[Ala(2-furyl)]YDWV[Bip][Ile(3ξ)][NMeA][dL]N[Cha][Val(3-OH)][Thr(3ξ)]C[X49]-NH2; thioether N-14),0.19

# Second part, the compound after the results:
row,IC50 [µM],Compound
1,0.04,Cc1cccc(C[C@@H]2NC(=O)[C@H](CC(=O)O)NC(=O)[C@H](Cc3ccc(OCC(=O)O)cc3)NC(=O)[C@H](CCN)NC(=O)CSC[C@@H](C(=O)N[C@@H](CO)C(N)=O)NC(=O)[C@H](CO)NC(=O)[C@H](C(C)(C)O)NC(=O)[C@H](CC3CCCCC3)NC(=O)[C@H](CCN)NC(=O)[C@@H](CC(C)C)NC(=O)[C@H](C)N(C)C(=O)[C@H](Cc3ccc(C(=O)O)cc3)NC(=O)[C@H](Cc3ccc(-c4ccccc4)cc3)NC(=O)[C@H](Cc3cccc(C(N)=O)c3)NC2=O)c1 [Compound 2178] ({CH2CO}-[Dab]Y(Carboxymethyl)D[Phe(3-Me)][Phe(3-CONH2)][Bip][Phe(4-COOH)][NMeA][dL][Dab][Cha][Val(3-OH)]SCS-NH2; thioether N-14)
2,0.06,Cc1cccc(C[C@@H]2NC(=O)[C@H](CC(=O)O)NC(=O)[C@H](Cc3ccc(OCC(=O)O)cc3)NC(=O)[C@H](CCN)NC(=O)CSC[C@@H](C(=O)N[C@@H](CO)C(N)=O)NC(=O)[C@H](CO)NC(=O)[C@H](C(C)(C)O)NC(=O)[C@H](CC3CCCCC3)NC(=O)[C@H](CCN)NC(=O)[C@@H](CC(C)C)NC(=O)[C@H](C)N(C)C(=O)[C@H](Cc3ccc(C(=O)O)cc3)NC(=O)[C@H](Cc3ccc(-c4ccccc4)cc3)NC(=O)[C@H](Cc3ccc(C(N)=O)cc3)NC2=O)c1 [Compound 2179] ({CH2CO}-[Dab]Y(Carboxymethyl)D[Phe(3-Me)][Phe(4-CONH2)][Bip][Phe(4-COOH)][NMeA][dL][Dab][Cha][Val(3-OH)]SCS-NH2; thioether N-14)
3,0.02,Cc1cccc(C[C@@H]2NC(=O)[C@H](CC(=O)O)NC(=O)[C@H](Cc3ccc(OCC(=O)O)cc3)NC(=O)[C@H](Cc3ccncc3)NC(=O)CSC[C@@H](C(=O)N[C@@H](CO)C(N)=O)NC(=O)[C@H](CO)NC(=O)[C@H](C(C)(C)O)NC(=O)[C@H](CC3CCCCC3)NC(=O)[C@H](CCN)NC(=O)[C@@H](CC(C)C)NC(=O)[C@H](C)N(C)C(=O)[C@H](Cc3ccc(C(=O)O)cc3)NC(=O)[C@H](Cc3ccc(-c4ccccc4)cc3)NC(=O)[C@H](Cc3ccc(C(N)=O)cc3)NC2=O)c1 [Compound 2180] ({CH2CO}-[4Pal]Y(Carboxymethyl)D[Phe(3-Me)][Phe(4-CONH2)][Bip][Phe(4-COOH)][NMeA][dL][Dab][Cha][Val(3-OH)]SCS-NH2; thioether N-14)
4,0.05,Cc1cccc(C[C@@H]2NC(=O)[C@H](CC(=O)O)NC(=O)[C@H](Cc3ccc(OCC(=O)O)cc3)NC(=O)[C@H](C(C)O)NC(=O)CSC[C@@H](C(=O)N[C@@H](CO)C(N)=O)NC(=O)[C@H](CO)NC(=O)[C@H](C(C)(C)O)NC(=O)[C@H](CC3CCCCC3)NC(=O)[C@H](CCN)NC(=O)[C@@H](CC(C)C)NC(=O)[C@H](C)N(C)C(=O)[C@H](Cc3ccc(C(=O)O)cc3)NC(=O)[C@H](Cc3ccc(-c4ccccc4)cc3)NC(=O)[C@H](Cc3ccc(C(N)=O)cc3)NC2=O)c1 (stereo partly drawn) [Compound 2181] ({CH2CO}-[Thr(3ξ)]Y(Carboxymethyl)D[Phe(3-Me)][Phe(4-CONH2)][Bip][Phe(4-COOH)][NMeA][dL][Dab][Cha][Val(3-OH)]SCS-NH2; thioether N-14)
5,0.09,Cc1cccc(C[C@@H]2NC(=O)[C@H](CC(=O)O)NC(=O)[C@H](Cc3ccc(OCC(=O)O)cc3)NC(=O)[C@H](Cc3cnc[nH]3)NC(=O)CSC[C@@H](C(=O)N[C@H](C)C(N)=O)NC(=O)[C@H](CO)NC(=O)[C@H](C(C)(C)O)NC(=O)[C@H](CC3CCCCC3)NC(=O)[C@H](CCN)NC(=O)[C@@H](CC(C)C)NC(=O)[C@H](C)N(C)C(=O)[C@H](Cc3ccc(OCC(=O)O)cc3)NC(=O)[C@H](Cc3ccc(-c4ccccc4)cc3)NC(=O)[C@H](Cc3ccc(C(=O)O)cc3)NC2=O)c1 [Compound 2182] ({CH2CO}-HY(Carboxymethyl)D[Phe(3-Me)][Phe(4-COOH)][Bip]Y(Carboxymethyl)[NMeA][dL][Dab][Cha][Val(3-OH)]SC[dA]-NH2; thioether N-14)
6,0.11,Cc1cccc(C[C@@H]2NC(=O)[C@H](CC(=O)O)NC(=O)[C@H](Cc3ccc(OCC(=O)O)cc3)NC(=O)[C@H](Cc3ccncc3)NC(=O)CSC[C@@H](C(=O)N[C@H](C)C(N)=O)NC(=O)[C@H](CO)NC(=O)[C@H](C(C)(C)O)NC(=O)[C@H](CC3CCCCC3)NC(=O)[C@H](CCN)NC(=O)[C@@H](CC(C)C)NC(=O)[C@H](C)N(C)C(=O)[C@H](Cc3ccc(OCC(=O)O)cc3)NC(=O)[C@H](Cc3ccc(-c4ccccc4)cc3)NC(=O)[C@H](Cc3ccc(C(=O)O)cc3)NC2=O)c1 [Compound 2183] ({CH2CO}-[4Pal]Y(Carboxymethyl)D[Phe(3-Me)][Phe(4-COOH)][Bip]Y(Carboxymethyl)[NMeA][dL][Dab][Cha][Val(3-OH)]SC[dA]-NH2; thioether N-14)
7,0.04,Cc1cccc(C[C@@H]2NC(=O)[C@H](CC(=O)O)NC(=O)[C@H](Cc3ccc(C(=O)O)cc3)NC(=O)[C@H](Cc3ccncc3)NC(=O)CSC[C@@H](C(=O)N[C@@H](CCN)C(N)=O)NC(=O)[C@H](CO)NC(=O)[C@H](C(C)(C)O)NC(=O)[C@H](CC3CCCCC3)NC(=O)[C@H](CCN)NC(=O)[C@@H](CC(C)C)NC(=O)[C@H](C)N(C)C(=O)[C@H](Cc3ccc(C(=O)O)cc3)NC(=O)[C@H](Cc3ccc(-c4ccccc4)cc3)NC(=O)[C@H](Cc3ccc(OCC(=O)O)cc3)NC2=O)c1 [Compound 2184] ({CH2CO}-[4Pal][Phe(4-COOH)]D[Phe(3-Me)]Y(Carboxymethyl)[Bip][Phe(4-COOH)][NMeA][dL][Dab][Cha][Val(3-OH)]SC[Dab]-NH2; thioether N-14)
